The text below walks through data of patent publication US20240100176A1, “HUMAN INTERLEUKIN-4 RECEPTOR ALPHA ANTIBODY GLUCOCORTICOID CONJUGATES” (Eli Lilly and Company, priority 2022, published 2024).

What all share (format): cell-based
The test system of assay [1] is IL-4 induced proliferation of human primary B cells. The assay is described as follows: Inhibition of IL-4 induced B cell proliferation. How it is done: Human PBMCs were isolated from human blood samples by standard Ficoll-Paque™ plus (GE […]) density gradient centrifugation methods, and primary B cells were isolated from the PBMC suspension by negative selection with EasySep™ Human Naïve B cell Enrichment kit according to the manufacturer's protocol ([…]™ Technologies). […] Cells were stimulated with Human CD40/TNFRSF5 Antibody (200 ng/mL; R&D SYSTEMS) and with IL-4 recombinant human protein (5 ng/mL; R&D SYSTEMS) for 2 days at 37° C. and 5% CO2. Cells were then pulsed with [^3H]-thymidine ([…] thymidine/well; PerkinElmer®) for 18 hours at 37° C. and level of [^3H]-thymidine incorporation was measured by a Microplate Counter (MicroBeta 2; PerkinElmer®) and expressed as a […] (CCPM). Statistical analysis was performed using GraphPad Prism 9 and curves were generated by fitting a sigmoidal curve of the log (Ab concentration) vs. the mean percent inhibition of CCPM compared to CD40 stimulation alone from two donors.

In assay [2] the test system is IL-5 secretion from Human PBMCs. Kind of assay: Inhibition of cytokine secretion from human PBMCs. The settings on record: PBMC; PHA-M/PMA stimulated human PBMCs, 48 hours; 100 nM. The protocol:
(§1) Example 4h. Inhibition of Cytokine secretion from Human PBMCs: PBMCs were isolated from Ficoll-layered blood centrifuged at 400×g for 30 minutes at room temperature. The PBMC layer was washed with sterile RPMI-1640 media (Corning® Cat. #10041CV) and centrifuged at 1500 rpm for 5 min, at 4° C. Red blood cells are lysed by resuspending the cell pellet in 5 mL of ACK Lysing Buffer (GIBCO Cat. #A1049201) and incubating at room temperature for 5 minutes. […] The plates are incubated at 37° C. with 5% CO2 for 48 hours. After the incubation period, plates are centrifuged at 2000 rpm for 1 min and the top 100 μL of the supernatants are removed and stored at −80° C., until ready to perform cytokine detection. Cytokine release is detected using the U-PLEX Custom Biomarker [Human] Multiplex Assay (MESO SCALE DISCOVERY), according to the manufacturer's protocol. Statistical analysis is performed using GraphPad Prism 9. Data was presented as sigmoidal curve fits of the mean of the individual donors' percent inhibition for each cytokine (n=2) vs. the log(Ab concentration) and statistical analysis is performed using GraphPad Prism 9.

Assay [3] relates to MDC secretion from Human PBMCs. The assay is described as follows: Inhibition of cytokine secretion from human PBMCs. Conditions: PBMC; PHA-M/PMA stimulated human PBMCs, 48 hours; 100 nM. How it is done:
as §1

For assay [4], the system named is GM-CSF secretion from Human PBMCs. The assay is described as follows: Inhibition of cytokine secretion from human PBMCs. The settings on record: PBMC; PHA-M/PMA stimulated human PBMCs, 48 hours; 100 nM. The protocol: as §1
Assay [5] deals with anti-CD40 induced proliferation of human primary B cells. Kind of assay: Glucocorticoid receptor mediated inhibition of anti-CD40 induced B cell proliferation. The protocol: Human PBMCs were isolated from human blood samples by standard Ficoll-Paque™ plus (GE […]) density gradient centrifugation methods, and primary B cells were isolated from the PBMC suspension by negative selection with EasySep™ Human Naïve B cell Enrichment kit according to the manufacturer's protocol ([…]™ Technologies). […] Cells were then pulsed with [^3H]-thymidine ([…] thymidine/well; PerkinElmer®) for 18 hours at 37° C. and level of [^3H]-thymidine incorporation was measured by a Microplate Counter (MicroBeta 2; PerkinElmer®) and expressed as a […] (CCPM). Statistical analysis was performed using GraphPad Prism 9 and curves were generated by fitting a sigmoidal curve of the log(Ab concentration) vs. the mean percent inhibition of CCPM compared to no stimulation from 2 donors.

pIC50: −log10 of the molar value.

In turn, `Cc1ccc(OCc2cccc(N)c2)c(F)c1[C@H]1O[C@@H]2C[C@H]3[C@@H]4CCC5=CC(=O)C=C[C@]5(C)[C@H]4[C@@H](O)C[C@]3(C)[C@]2(C(=O)CO)O1` (single isomer, unassigned) [GC1] gave an inhibition at 0.06667 µM in assay [1] (Homo sapiens, B-cell, IL-4 induced, 66.67 nM) of 25.7%. Moreover, the “Inhibition of IL-4 induced B cell proliferation (in words)” value in assay [1] (compared to the isotype control) was “no significant inhibition was observed”. Also, the inhibition at 0.1 µM is 97.4% in assay [2]; 96.1% in assay [3]; 90.8% in assay [4]; 66.5% in assay [5] (read-out: Inhibition of B cell proliferation at 100 nM % inhibition, anti-CD40 induced, 100 nM). For the same molecule, in assay [5] (anti-CD40 (200 ng/mL) induced, no IL-4), the pIC50 (in general, the negative decadic logarithm of the IC50, by convention in mol/L) is 8.43.
